From article PMC12051620, “Molecular basis underlying the specificity of an antagonist AA92593 for mammalian melanopsins” (The Journal of Biological Chemistry, 2025)

Target: T1, belcheri melanopsin WT (Branchiostoma belcheri, UniProt Q4R1I4)
T1 construct: expressed in transfected cells; host or cells: COS-1
Assay: GsX GloSensor assay with Gsα/q11
Format: cell-based
Settings: 16.7 μM AA92593, COS-1 cells
Text: Non-mammalian-type melanopsins were successfully converted into AA92593-susceptible types by introducing Phe-94^2.61/Ser-188^ECL2/Ser-269^6.52 or Phe-207^5.42 (Fig. 6). We attempted to extend the functional conversion targets to invertebrate melanopsin (see Fig. S2). […] We assessed the susceptibility of belcheri and lanceolatum melanopsins to AA92593 using the GsX GloSensor assay with Gsα/q11. In the absence of AA92593, the belcheri melanopsin produced smaller light-dependent cAMP responses than the other melanopsins assessed in this study (Fig. 7A), whereas the lanceolatum melanopsin produced robust cAMP responses upon light illumination (Fig. 7B). […] On the other hand, responses by the lanceolatum melanopsin were insensitive to the antagonist (Fig. 7B), similar to non-mammalian-type melanopsins (Fig. 6, A and D). […]
For GloSensor assay, opsins, GloSensor assay sensor (coded by pGlo-22F), and NanoBiT-tagged G proteins were transiently expressed in COS-1 cells (kindly provided from Dr David Farrens, Oregon Health and Science University) using PEI as described previously ([24], [52]). […] For GFP-fluorescence microscopy, a 35-mm cell culture dish (IWAKI) was transfected with 2 μg melanopsin-GFP plasmid and 8 μg PEI in 400 μl Opti-mem and 1.2 ml D-MEM. […]

T1 sequence (Q4R1I4 1-410 limits assumed): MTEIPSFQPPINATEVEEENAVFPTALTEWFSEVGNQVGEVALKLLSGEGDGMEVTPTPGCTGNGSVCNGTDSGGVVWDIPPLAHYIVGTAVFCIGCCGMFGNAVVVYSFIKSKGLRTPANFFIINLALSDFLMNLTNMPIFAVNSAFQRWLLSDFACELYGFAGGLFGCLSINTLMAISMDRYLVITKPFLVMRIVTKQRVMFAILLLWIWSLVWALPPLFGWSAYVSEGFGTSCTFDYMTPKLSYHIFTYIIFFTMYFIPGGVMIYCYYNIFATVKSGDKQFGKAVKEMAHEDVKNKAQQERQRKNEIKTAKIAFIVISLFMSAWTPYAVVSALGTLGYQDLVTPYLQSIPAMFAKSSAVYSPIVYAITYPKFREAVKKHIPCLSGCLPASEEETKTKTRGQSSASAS

COc1ccc(S(=O)(=O)N2CCCCC2)cc1C [AA92593]
reduction of light-induced cellular responses by the addition of AA92593: ~34%
